SMILES strings stand for the structures. Where only a bound is given, the exact number is not on record here.

The values below come from US20250042898A1, “Pharmaceutical Compounds And Compositions As c-Kit Kinase Inhibitors” (Enanta Pharmaceuticals, Inc., priority 2023, published 2025).

The target of test [1] is Recombinant human c-KIT kinase (Homo sapiens (Human), UniProt P10721). The test can be described thus: c-KIT Kinase Chemiluminescence Assay (ADP-Glo). The test is classed as biochemical. To be noted: recombinant human c-KIT 25 ng, ATP 50 μM, polyEY substrate, ADP-Glo luminescence. An excerpt: Staurosporine (AM-2282) and Imatinib (STI571) were purchased from Selleck Chemicals LLC (Houston, TX). The c-KIT reference compound THB001 (EP-053504) was synthesized by Enanta Pharmaceuticals, Inc. (Watertown, MA). The c-KIT Kinase Enzyme System (V4498) and ADP-Glo™ Kinase Assay kit (V6930) were purchased from Promega (Madison, WI). DMSO (D2650) was purchased from Sigma-Aldrich (Burlington, MA). ECHO-650 acoustic liquid handling system (67/492,212) and 384-well LDV ECHO source plates (LP-0200) were purchased from Labcyte, Inc (San Jose, CA). Envision Multimode Plate Reader (2104/464466) and ProxiPlate-384 Plus White 384-shallow well microplates (6008280) were purchased from PerkinElmer (Waltham, MA).
Recombinant human c-KIT kinase, sequence (P10721 26-976): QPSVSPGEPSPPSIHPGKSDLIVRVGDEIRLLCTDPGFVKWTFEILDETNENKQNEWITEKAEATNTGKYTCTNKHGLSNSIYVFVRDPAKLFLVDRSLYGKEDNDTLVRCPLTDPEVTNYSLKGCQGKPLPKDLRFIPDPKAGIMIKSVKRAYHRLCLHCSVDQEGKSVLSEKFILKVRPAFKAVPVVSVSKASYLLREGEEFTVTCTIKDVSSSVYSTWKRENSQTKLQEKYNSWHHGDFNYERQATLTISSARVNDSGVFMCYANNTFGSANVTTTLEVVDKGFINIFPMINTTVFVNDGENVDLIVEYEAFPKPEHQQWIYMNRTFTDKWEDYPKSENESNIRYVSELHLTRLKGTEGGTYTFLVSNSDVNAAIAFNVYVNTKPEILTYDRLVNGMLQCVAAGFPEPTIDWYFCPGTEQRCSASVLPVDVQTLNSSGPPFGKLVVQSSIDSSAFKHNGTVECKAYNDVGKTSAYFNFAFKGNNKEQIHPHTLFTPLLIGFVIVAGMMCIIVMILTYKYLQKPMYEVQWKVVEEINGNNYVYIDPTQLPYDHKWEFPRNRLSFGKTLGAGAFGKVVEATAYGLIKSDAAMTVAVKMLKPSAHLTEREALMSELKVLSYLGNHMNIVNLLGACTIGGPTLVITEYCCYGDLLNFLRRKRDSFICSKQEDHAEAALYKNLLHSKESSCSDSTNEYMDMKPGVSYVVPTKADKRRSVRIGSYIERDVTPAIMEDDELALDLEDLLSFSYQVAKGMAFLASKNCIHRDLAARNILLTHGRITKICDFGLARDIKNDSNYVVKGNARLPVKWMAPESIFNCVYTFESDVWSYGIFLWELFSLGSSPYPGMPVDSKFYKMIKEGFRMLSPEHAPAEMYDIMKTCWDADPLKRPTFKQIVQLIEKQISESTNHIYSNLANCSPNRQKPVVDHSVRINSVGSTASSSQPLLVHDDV
c-KIT Kinase Chemiluminescence Assay:
IC50 determination. Test compounds were dispersed into a 384-well low volume while ProxiPlate microplate from a DMSO solution using an ECHO 650 acoustic dispenser to generate a 11-point, 3.162-fold dilution, concentration curve starting at 10 μM in duplicate. Kinase Reaction: The kinase assay was based on the recommended protocol by c-KIT Kinase Enzyme System from Promega. Recombinant human c-KIT kinase in 3 μL of assay buffer (40 mM Tris pH 7.5, 20 mM MgCl2, 0.1 mg/mL BSA and 50 μM DTT) was added to the test or high control wells and 3 μL of assay buffer was added to the low control wells. The microplate was centrifuged at 800 rotations per minute (rpm) for 60 s and incubated at room temperature (RT) for 30 min. Next, 2 μL of buffered ATP and polyEY substrate solution was added to all wells. The microplate was centrifuged at 800 rpm for 60 s and incubated at RT for 2 h. The final assay contained c-KIT (25 ng), ATP (50 μM), polyEY substrate (0.2 μg/μL), test compounds (0-10 μM) and DMSO (1.7%) in 5 μL assay buffer. ADP detection with ADP-Glo™ Kinase Assay: After the kinase reaction incubation, 5 μL of ADP-Glo™ reagent was added to all wells. The microplate was centrifuged at 800 rpm for 60 s and incubated at RT for 40 min. Ten microliter (10 μL) of Kinase Detection Reagent (Luciferin-Luciferase system) was then added to all wells. The microplate was centrifuged at 800 rpm for 60 s and incubated at RT for 60 min. Kinase activity was measured as increase in luminescence at RT in an Envision plate reader equipped with 560 nm filters and operating in endpoint mode.
Data Analysis: Endpoint chemiluminescence from high and low control wells were used to calculate normalized c-KIT activity at various concentrations of test compounds. The normalized activities were fitted to inhibitor-versus-normalized response fit in GraphPad Prism 7 to determine half-maximal inhibitory concentration (IC50) and hill coefficient values (H).
c-KIT activity (%)=100/(1+I^H/IC50^H).
Where I is the inhibitor concentration and H is the Hill coefficient.
IC50 ranges are reported as follows: A<100 nM; B 0.1-1 μM; C>1 μM.

The next test deals with M-07e cells. The test can be described thus: M-07e Cellular Assay (SCF-mediated cell proliferation, CellTiter Glo). The test is classed as cell-based. Particulars: Homo sapiens, SCF at EC90, 72 hours incubation, CellTiter Glo cell viability, read-out: M-7e EC50. As for the experimental part:
M-07e cells (Creative Bioarray, CSC-C0249) which endogenously express human c-KIT were used to evaluate the effect of compounds on stem cell factor (SCF)-mediated cell proliferation. M-07e cells were cultured in growth media (RPMI+10% FBS+1% penicillin/streptomycin+10 ng/mL GM-CSF) at 5E5-1.5E6 cells/mL, replenishing media every 3-4 days. 1.5E4 cells were seeded per well in 384 well tissue culture treated plates in […] assay media (RPMI+10% FBS+1% penicillin/streptomycin) without growth factor stimulation and incubated at 37° C. in a CO2 humidity-controlled incubator. Twenty-four hours later, three-fold serially diluted test compounds in media containing SCF (at the previously determined EC90) were added to the plated M-07e cells and incubated for an additional 72 hours. Cell viability was determined by adding 25 μL CellTiter Glo (Promega) to the cells and the luminescence was measured using a Perkin Elmer Envision plate reader. The EC50 was determined using GraphPad Prism. Percent cell growth was determined after normalizing the curve to the mean RLU high control (no compound control wells) at 100% and the mean RLU low control (no SCF control wells) at 0%. EC50 curves were generated using a variable slope four-parameter logistic model with equation […]. ECso ranges are reported as follows: A<100 nM; B 0.1-1 μM; C>1 μM.
A general note: ATP-based viability assays read luminescence as a measure of living cells.

One may read the IC50 as the midpoint of a concentration-inhibition curve. A word on the EC50: it is the midpoint of the concentration-response curve. As to `O=C(Nc1cc(-c2noc([C@H]3C[C@@H]3F)n2)ccn1)c1cnc2ccccn12` [Example 1], the IC50 in test [1] was above 1000 nM. The EC50 in the test on M-07e cells was above 1000 nM. Regarding `O=C(Nc1cc(-c2noc(C3CC(F)(F)C3)n2)ccn1)c1cnc2ccccn12` [Example 2], the IC50 in test [1] was above 1000 nM. Moreover, the EC50 with M-07e cells is above 1000 nM. As to `Cc1sc(-c2noc([C@H]3C[C@@H]3F)n2)cc1NC(=O)c1cnc2ccccn12` [Example 3], the concentration for half-maximal inhibition (IC50) in test [1] was 100 to 1000 nM. For the same compound, the EC50 in the test on M-07e cells fell in the range of 100 to 1000 nM. Take `Cc1sc(-c2noc(C3CC(F)(F)C3)n2)cc1NC(=O)c1cnc2ccccn12` [Example 4]: in test [1], the IC50 was 100 to 1000 nM. For the same compound, in the test on M-07e cells, the EC50 was in the range of 100 to 1000 nM. As for `Cc1ncc(-c2ncc(OC(F)(F)F)cn2)cc1NC(=O)c1cnc2ccc(N3CC4(C3)CC(O)(C(F)F)C4)cn12` [Example 14], the IC50 in test [1] is above 1000 nM.

Regarding `Cc1ncc(-c2noc([C@H]3C[C@@H]3F)n2)cc1NC(=O)c1cnc2ccc(N3CC4(C3)CC(O)(C(F)F)C4)cn12` [Example 15], in test [1], the IC50 lay within 100 to 1000 nM. As to `Cc1ncc(-c2nnn(C3CC(F)(F)C3)n2)cc1NC(=O)c1cnc2ccc(N3CC4(C3)CC(O)(C(F)F)C4)cn12` [Example 16], the IC50 in test [1] lay in the range of 100 to 1000 nM.

For `Cc1ncc(-c2noc([C@H]3C[C@@H]3F)n2)cc1NC(=O)c1cnc2cc(N3CC4(C3)CC(O)(C(F)F)C4)ccn12` [Example 17], the IC50 in test [1] was in the range of 100 to 1000 nM.
